The test system of data set [1] is NCI-H1048 (small cell lung cancer). Briefly: PI3K viability assay, NCI-H1048 cells. Type of data set: cell-based. The conditions noted are these: Homo sapiens. The protocol: (§1) PI3K viability assays were carried out on the payloads and conjugates. HCT-116 (human colon carcinoma), NCI-H460 (human non-small cell lung carcinoma), and NCI-H1048 (small cell lung cancer) cells were treated with conjugates and payloads for 4 hours. After 4 hours, compounds were washed out and cells assayed for viability 72 hrs post wash out.

For data set [2], the system named is NCI-H460 (human non-small cell lung carcinoma). Kind of data set: PI3K viability assay, NCI-H460 cells. The data set is classed as cell-based. The method, then: as §1
Data set [3] concerns HCT-116 (human colon carcinoma). Kind of data set: PI3K viability assay, HCT-116 cells. The data set is classed as cell-based. The protocol:
as §1

Data set [4] in a line: Stability of PARP inhibiting (olaparib) conjugates in plasma and tumor tissue, release of olaparib. The data set is classed as in vitro ADME. The conditions noted are these: for Release of olaparib in plasma and tumor: plasma and tumor tissues, FIG. 1A-E. The protocol: Stabilities of conjugates comprising PARP inhibitor olaparib and HSP90 binding moieties were studied and the conversions of the conjugates to Olaparib were monitored.
In one study, concentrations of Compounds 4, 5, 6 and olaparib released from them in plasma and tumor tissue were monitored (FIG. 1A, FIG. 1B, and FIG. 1C). The linkers were cleaved to release olaparib, thus concentrations of olaparib increased over time. Half times of Compounds 4, 5, and 6 were calculated. […]

Data set [5] concerns HCT-116, NCI-H460, and NCI-H1048 cells. Briefly: PI3K viability assays, summary over the three cell lines. The conditions noted are these: 4 hours treatment, viability 72 hrs post wash out. The data set is classed as cell-based, human. The method, then:
as §1

Data set [6] can be described thus: Stability of PI3K inhibiting conjugates at 37° C. in plasma and tumor homogenates. The source says: Stabilities of conjugates comprising PI3K inhibitors and HSP90 binding moieties were studied.
Another data set deals with Caspase-9. Briefly: PI3K Caspase-9 assay with HCT-116 cells. To be noted: 4 hour treatment, assayed 24, 48, 72 hrs. The data set is classed as cell-based, human. The method, then:
Caspase-9 is activated during apoptosis and is an indicator of apoptosis and cytokine processing. PI3K Caspase-9 assay was conducted with HCT-116 cells. HCT-116 cells were treated with conjugates and payloads for 4 hours. After 4 hours, compounds were washed out and cells were assayed for Caspase-9 24, 48, 72, and 144 hrs. Untreated cells were not viable at 144 hrs. Caspase-9 levels 24 hours, 48 hours, and 72 hours after 4 hour treatment with Compound 10, Compound 12, Compound 13, PF-0461502, Compound 11, T-1634, and BAY80-6946 were shown in FIG. 3.

Data set [7] in a line: In vivo tumor PK study, HCT116 colon cancer tumor line mouse model. The conditions noted are these: single dose at 0 hours, FIG. 4. The protocol: A tumor PK study was conducted with HSP90-binding conjugate Compound 12 in a HCT116 colon cancer tumor line mouse model. The payload on Compound 12 is the PI3K inhibitor PI-103. Both PI-103 and Compound 12 were given as a single dose at 0 hours to separate groups of mice and their concentrations in tumors were collected over time.

A short description of data set [8]: In vivo tumor PK study, MDA-MB-231 breast cancer tumor line mouse model. The protocol:
A tumor PK study was conducted with HSP90-binding conjugate Compound 12 in a MDA-MB-231 breast cancer tumor line mouse model. The payload on Compound 12 is the PI3K inhibitor PI-103. Both PI-103 and Compound 12 were given as a single dose at 0 hours to separate groups of mice and their concentrations in tumors were collected over time.

Setting [9] is: NCI-H1048, 4 hours treatment, wash out, viability 72 hrs post wash out, Run 1, read-out: IC50 NCI-H1048 Run 1.
Where [10] appears, read: NCI-H460, 4 hours treatment, wash out, viability 72 hrs post wash out, Run 1, read-out: IC50 NCI-H460 Run 1.
Where [11] appears, read: HCT-116, 4 hours treatment, wash out, viability 72 hrs post wash out, Run 1, read-out: IC50 HCT-116 Run 1.
Where [12] appears, read: plasma, Table 1, read-out: Plasma t1/2 (converted).
[13] abbreviates: tumor tissue, Table 1, read-out: Tumor t1/2 (converted).
[14] abbreviates: plasma, Table 3, read-out: Plasma t1/2 (converted).
Setting [15] is: tumor tissue, Table 3, read-out: Tumor t1/2 (converted).
Setting [16] is: NCI-H1048, 4 hours treatment, wash out, viability 72 hrs post wash out, Run 2, read-out: IC50 NCI-H1048 Run 2.
The mark [17] stands for this setting: HCT-116, 4 hours treatment, wash out, viability 72 hrs post wash out, Run 2, read-out: IC50 HCT-116 Run 2.
Where [18] appears, read: NCI-H460, 4 hours treatment, wash out, viability 72 hrs post wash out, Run 2, read-out: IC50 NCI-H460 Run 2.
Where [19] appears, read: NCI-H1048, read-out: IC50 NCI-H1048 Run 2.
[20] abbreviates: NCI-H460, read-out: IC50 NCI-H460 Run 2.
[21] abbreviates: HCT-116, read-out: IC50 HCT-116 Run 2.

pIC50: −log10 of the molar value. Like-named read-outs stand apart in the source and are kept apart here.

For `COc1c(OCCCN2CCOCC2)ccc2c1N=C(NC(=O)c1cnc(N)nc1)N1CCN=C21` [BAY80-6946, Copanlisib, reference compound], the pIC50 was 6.89 in data set [1] (setting [9]), 6.21 in data set [2] (setting [10]) and 5.47 in data set [3] (setting [11]).
On to `CC(C)c1cc(-c2nnc(O)n2-c2ccc3c(ccn3CCC3CCN(CCC(C)(C)SSCCOC(=O)NCn4nc(Cc5ccc(F)c(C(=O)N6CCN(C(=O)C7CC7)CC6)c5)c5ccccc5c4=O)CC3)c2)c(O)cc1O` [Compound 4], for which, in [4], the “Release of olaparib in plasma and tumor” value was “release olaparib in plasma and tumor”. The half-life in [4] (setting [12]) was 4.5 h; in [4] (setting [13]), 0.64 h.
Regarding `CC(C)c1cc(-c2nnc(O)n2-c2ccc3c(ccn3CCC3CCN(CCC(C)(C)SSCCOC(=O)N(CCN(C)C)Cn4nc(Cc5ccc(F)c(C(=O)N6CCN(C(=O)C7CC7)CC6)c5)c5ccccc5c4=O)CC3)c2)c(O)cc1O` [Compound 5], in data set [4] (plasma and tumor), the “Relative stability in plasma and tumor” value was “more stable than Compound 4 and Compound 6 in both plasma and tumor”. Besides, the “Release of olaparib in plasma and tumor” value in [4] is “release olaparib in plasma and tumor”. The half-life was 35 h in data set [4] (setting [12]) and 4.5 h in [4] (setting [13]).
Take `CC(C)c1cc(-c2nnc(O)n2-c2ccc3c(ccn3CCC3CCN(CCCSSCCOC(=O)N(CCN(C)C)Cn4nc(Cc5ccc(F)c(C(=O)N6CCN(C(=O)C7CC7)CC6)c5)c5ccccc5c4=O)CC3)c2)c(O)cc1O` [Compound 6]: the “Release of olaparib in plasma and tumor” value in data set [4] is “release olaparib in plasma and tumor”. The half-life in data set [4] (setting [12]) was 4.8 h; in [4] (setting [13]) it was 0.27 h.
With `CC(C)c1cc(-c2nnc(O)n2-c2ccc(CN3CCN(CCC(C)(C)SSCCOC(=O)N(CCN(C)C)Cn4nc(Cc5ccc(F)c(C(=O)N6CCN(C(=O)C7CC7)CC6)c5)c5ccccc5c4=O)CC3)cc2)c(O)cc1O` [Compound 7], in data set [4], the “Release of olaparib in plasma and tumor” value is “release olaparib in plasma and tumor”. For the same compound, the values for the half-life in [4] (setting [14]) and in [4] (setting [15]) were 43 h and 4 h, respectively.
In the case of `CC(C)c1cc(-c2nnc(O)n2-c2ccc(CN3CCN(CCC(C)(C)SSc4ccc(COC(=O)N(CCN(C)C)Cn5nc(Cc6ccc(F)c(C(=O)N7CCN(C(=O)C8CC8)CC7)c6)c6ccccc6c5=O)cc4)CC3)cc2)c(O)cc1O` [Compound 8], the “Release of olaparib in plasma and tumor” value in [4] was “release olaparib in plasma and tumor”. Further, the figures for the half-life in data set [4] (setting [14]) and in data set [4] (setting [15]) were 46 h and 24 h, respectively.
Take `CC(C)c1cc(-c2nnc(O)n2-c2ccc3c(ccn3CCC3CCN(C(=O)Oc4cccc(-c5nc(N6CCOCC6)c6oc7ncccc7c6n5)c4)CC3)c2)c(O)cc1O` [Compound 10]: the negative-log IC50 (pIC50) is 4.39 in [1] (setting [9]), about 2.04 in data set [1] (setting [16]), about 2.49 in data set [2] (setting [10]) and about 1.81 in [3] (setting [17]). Besides, in data set [5], the “Activity in viability assays relative to payload” value is “appeared to lose activity”. Further, the “Stability in plasma versus tumor homogenates” value in data set [6] (37° C.) was “less stable in plasma than in tumor homogenates”. The “Cleavage of carbamate groups” value in data set [6] (plasma) is on record as “cleaved in plasma by carboxylesterase”. The Caspase-9 signal result in the data set with Caspase-9 is “Lack or decrease in signal”.
As to `COc1ccc(-c2cc3c(C)nc(N)nc3n([C@H]3CC[C@H](OCCOC(=O)N4CCC(CCn5ccc6cc(-n7c(O)nnc7-c7cc(C(C)C)c(O)cc7O)ccc65)CC4)CC3)c2=O)cn1` [Compound 11], the pIC50 in data set [1] (setting [9]) was 5.75; in data set [1] (setting [16]), 5.70; in data set [2] (setting [10]), 5.44; in data set [2] (setting [18]), 5.44; in data set [3] (setting [11]), 4.99; in data set [3] (setting [17]), 5.25. Moreover, in [6], the “Cleavage of carbamate groups” value was “cleaved in plasma by carboxylesterase”. Further, the “Stability in plasma versus tumor homogenates” value in data set [6] is “less stable in plasma than in tumor homogenates”.
As for `CC(C)c1cc(-c2nnc(O)n2-c2ccc(CN3CCN(C(=O)Oc4cccc(-c5nc(N6CCOCC6)c6oc7ncccc7c6n5)c4)CC3)cc2)c(O)cc1O` [Compound 12], the negative-log IC50 (pIC50) is 5.90 in data set [1] (setting [19]), 5.71 in data set [2] (setting [20]) and 5.40 in [3] (setting [21]). Further, the “Concentrations in tumors over time” value in [7] was “accumulation of the conjugate, retention of the conjugate and sustained release of the payload over time”; in [8] (single dose at 0 hours, MDA-MB-231 tumor, FIG. 5) it was “accumulation of the conjugate, retention of the conjugate and sustained release of the payload over time”. For the same compound, the “Activity in viability assays relative to payload” value in [5] is “retained activity similar to PI-103 payload”. For the same compound, the Caspase-9 signal entry in the data set with Caspase-9 is “appears to retain activity similar to payload (PI-103) and ligand (ganetespib)”.
Consider `CC(C)c1cc(-c2nnc(O)n2-c2ccc(CN3CCN(C(=O)NC(CSSCCNC(=O)Oc4cccc(-c5nc(N6CCOCC6)c6oc7ncccc7c6n5)c4)C(N)=O)CC3)cc2)c(O)cc1O` (stereo not drawn) [Compound 13], for which the negative-log IC50 (pIC50) is 5.54 in data set [1] (setting [19]), 5.09 in data set [2] (setting [20]) and 4.97 in data set [3] (setting [21]). For the same compound, the “Activity in viability assays relative to payload” value in data set [5] is “retained activity similar to PI-103 payload”. Further, the Caspase-9 signal entry in the data set with Caspase-9 was “Lack or decrease in signal”.
`COc1ncc(-c2ccc3nccc(-c4ccnnc4)c3c2)cc1NS(=O)(=O)c1ccc(F)cc1F` [GSK-2126458, Omipalisib, reference compound]: the pIC50 in [1] (setting [9]) was 6.68; in data set [2] (setting [10]), 6.72; in [3] (setting [11]) it was 5.82.
`COc1ccc(-c2cc3c(C)nc(N)nc3n([C@H]3CC[C@H](OCCO)CC3)c2=O)cn1` [PF-04691502, reference compound]: the negative logarithm of the IC50 (pIC50) was 5.47 in data set [1] (setting [9]); 5.58 in data set [1] (setting [16]); 5.05 in [2] (setting [10]); 5.45 in data set [2] (setting [18]); 4.34 in data set [3] (setting [11]); 4.95 in data set [3] (setting [17]).
As for `Oc1cccc(-c2nc(N3CCOCC3)c3oc4ncccc4c3n2)c1` [PI-103, reference compound], the pIC50 in data set [1] (setting [9]) is 5.71; in data set [1] (setting [16]), 5.60; in data set [2] (setting [10]), 5.55; in data set [2] (setting [18]), 5.36; in data set [3] (setting [11]), about 1.78. The “Concentrations in tumors over time” value is “detected at 1 hour and then fell below limit of detection” in data set [7]; “detected at 1 hour and then fell to a low level at 24 h” in data set [8] (mouse, in vivo).
